Experimental data taken from ChEMBL document CHEMBL1129066, “Novel terphenyls as selective cyclooxygenase-2 inhibitors and orally active anti-inflammatory agents” (J Med Chem, 1996).

Experiments:
Rattus norvegicus [1] = species on record: Rattus norvegicus; experiment: animal or person; assay type: functional
Rattus norvegicus [2] = species on record: Rattus norvegicus; experiment: animal or person; assay type: functional; remark: listed apart in the source
[3] = target: Prostaglandin G/H synthase 1 (Homo sapiens, UniProt P23219)
Chain of Prostaglandin G/H synthase 1 (P23219 whole entry): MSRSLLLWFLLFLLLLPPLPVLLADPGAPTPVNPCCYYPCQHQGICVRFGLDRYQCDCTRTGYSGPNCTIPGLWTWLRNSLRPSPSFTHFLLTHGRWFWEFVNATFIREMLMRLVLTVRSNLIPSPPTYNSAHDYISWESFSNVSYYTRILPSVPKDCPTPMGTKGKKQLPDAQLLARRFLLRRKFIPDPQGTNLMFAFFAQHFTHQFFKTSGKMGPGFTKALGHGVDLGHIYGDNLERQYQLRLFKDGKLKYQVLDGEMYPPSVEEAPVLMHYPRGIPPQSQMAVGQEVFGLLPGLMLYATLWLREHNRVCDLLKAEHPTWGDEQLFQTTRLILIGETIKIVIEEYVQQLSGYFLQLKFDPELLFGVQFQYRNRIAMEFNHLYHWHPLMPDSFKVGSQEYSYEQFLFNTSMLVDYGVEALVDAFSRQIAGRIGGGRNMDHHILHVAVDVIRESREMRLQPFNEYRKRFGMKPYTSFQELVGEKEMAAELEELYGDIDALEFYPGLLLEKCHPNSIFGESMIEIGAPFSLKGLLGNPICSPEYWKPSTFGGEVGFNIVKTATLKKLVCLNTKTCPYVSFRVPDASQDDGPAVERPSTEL

Rattus norvegicus [4] = species on record: Rattus norvegicus; experiment: animal or person; assay type: functional; remark: listed apart in the source
Rattus norvegicus [5] = species on record: Rattus norvegicus; experiment: animal or person; assay type: functional; remark: listed apart in the source

**Q.** NS(=O)(=O)c1ccc(-c2cc(F)c(F)cc2-c2ccc(F)c(Cl)c2)cc1 was tested. Which ED50 (Rattus norvegicus [1]) did it give?
**A.** 0.05 mg/kg

**Q.** And the ED50 (Rattus norvegicus [2])?
**A.** 38.7 mg/kg

**Q.** With CS(=O)(=O)c1ccc(-c2c(F)c(F)c(F)c(F)c2-c2ccc(F)cc2)cc1 as the compound, how does the IC50 [3] read?
**A.** > 100 µM

**Q.** NS(=O)(=O)c1ccc(-c2cc3c(cc2-c2ccc(F)cc2)OCO3)cc1 was tested. Which inhibition in vivo at 2 mg/kg (Rattus norvegicus [4]) did it give?
**A.** 26%

**Q.** Which ED50 (Rattus norvegicus [1]) does the source give for NS(=O)(=O)c1ccc(-c2ccccc2-c2ccc(F)cc2)cc1 here?
**A.** 1.5 mg/kg

**Q.** What about the ED50 (Rattus norvegicus [5]) of the same compound?
**A.** > 50 mg/kg

**Q.** Which IC50 [3] does the source give for CS(=O)(=O)c1ccc(-c2nccnc2-c2ccc(F)cc2)cc1 here?
**A.** > 100 µM

**Q.** Which IC50 [3] does the source give for CS(=O)(=O)c1ccc(-c2cc(Cl)c(Cl)cc2-c2ccc(F)cc2)cc1 here?
**A.** > 100 µM

**Q.** Which IC50 [3] does the source give for CS(=O)(=O)c1ccc(-c2cc(F)c(F)cc2-c2ccc3c(c2)OCCO3)cc1 here?
**A.** > 100 µM

**Q.** For CS(=O)(=O)c1ccc(-c2cc3ccccc3cc2-c2ccc(F)cc2)cc1, which IC50 [3] is on record?
**A.** > 100 µM

**Q.** For CS(=O)(=O)c1ccc(-c2cc3c(cc2-c2ccc(F)cc2)OCO3)cc1, which inhibition in vivo at 2 mg/kg (Rattus norvegicus [4]) is on record?
**A.** 0%

**Q.** COc1c(Cl)cc(-c2cc(F)c(F)cc2-c2ccc(S(C)(=O)=O)cc2)cc1Cl was tested. Which IC50 [3] did it give?
**A.** > 100 µM
